Assay type in all cases: cell-based
Data set [1] is described as follows: in vitro. To be noted: mouse. From the text: (§1) In order to assess toxicity, osteoblast-like cells MC3T3-E1 (source: ATCC CRL-2596) were used. At first, the adherent cells were separated from each other and from the bottom of the petri dishes using pronase, and were then mixed with freshly prepared medium consisting of commercially available Minimal Essential Medium Eagle's alpha Modification (αMEM), supplemented with additional glucose from originally 1 g/l to a glucose concentration of 4.5 g/l as well as with 10% FCS (fetal calf serum), 30 μg/ml gentamycin (broad-spectrum antibiotic), L-glutamine (400 mg/l), and ascorbic acid (50 mg/l), so as to obtain a cell concentration of 40,000 cells/ml. 1 ml of this cell suspension was precharged into each well (diameter 1.9 cm) of multi-well plates.
(§2) The multi-well containing the cells was incubated for 5 days at 37° C. under a humid atmosphere with 5% CO2 together with increasing amounts of the monomers used in the examples and comparative examples. Then the cells were washed with phosphate-buffered physiological saline and frozen before the measurements, in order to break up the cells. After thawing of the cells, the amount of deoxyribonucleic acid, which is proportional to the cell count, was determined by staining with a fluorescent dye, measuring the fluorescence at 460 nm (after excitation at 360 nm) and comparing the value to a calibration curve previously prepared.

Data set [2] has as its system osteoblast-like cells MC3T3-E1. In words: in vitro.
Text: as §1, §2

Data set [3] relates to human umbilical vein endothelial cells (HUVEC). Briefly: Toxicity test of monomers with endothelial cells (EZ4U). On the procedure:
For an additional toxicity test of monomers of formula (I), human umbilical vein endothelial cells (HUVEC) were used. After trypsinating the confluent primary cultures, the cells were suspended in commercial Medium 199 with 20% fetal calf serum, put into 96-well cell culture plates in a concentration of 40,000 cells/cm^2, and cultivated until they were confluent again (37° C., 5% CO2). The cell supernatants were then lifted, and the endothelial cells were incubated for 24 hours with increasing monomer concentrations (0.1 nM to 1 mM in Medium 199 with 10% fetal calf serum). The influence on cell proliferation was examined by means of a non-radioactive cell proliferation and cytotoxicity test (EZ4U, Biomedica, Vienna). This test is based on the conversion by living cells of colorless tetrazolium salts into intensively colored formazan derivatives. The photochemically measured staining is proportional to the number of living cells in the sample. Thus, the influence of the test substances on the proliferation of the cells may be photometrically determined. Endothelial cells which had been cultivated without the addition of monomer solutions were used as a growth control.

Where [4] appears, read: MC3T3-E1, 5 days incubation, DNA fluorescence, values are LC50 × 10^4.
The mark [5] stands for this setting: HUVEC, 24 hours, concentration of half-maximum proliferation inhibition.

Where two headings read alike, the source gives them in different places.

Molecule `C=COC(=O)N(OC)C(=O)C=C` [AMVCA, N-acryloyl N-methoxy vinyl carbamate] came in with a CC50 in data set [1] (setting [4]) of less than 0.01 mM. In data set [2] (statement on Table 2), the “toxicity for osteoblasts compared with the acrylates of the comparative examples” value is reported as “similarly toxic as the majority of the comparative examples”.

Turning to `C=COC(=O)CCCCC(=O)OC=C` [AVE, adipic acid divinyl ester], the Cmax1/2 in data set [3] (setting [5]) is more than 1000 µM.

As to `C=COC(=O)OCCCCOC(=O)OC=C` [BDDVC, 1,4-butanediol bis(vinyl carbonate)], the CC50 at 5 days in data set [1] (osteoblast-like MC3T3-E1 cells (ATCC CRL-2596), MC3T3-E1, 5 days incubation, DNA fluorescence, values are LC50 × 10^4, read-out: In vitro LC50 × 10^4) is more than 10 mM.

Take `C=C(C)C(=O)OCCCCOC(=O)C(=C)C` [BDMA, 1,4-butanediol dimethacrylate, reference compound]: the CC50 in data set [1] (setting [4]) is less than 0.01 mM. The Cmax1/2 in data set [3] (setting [5]) is 40 µM.

`C=COC(=O)OCCC#N` [CEVC, 2-cyanoethyl vinyl carbonate] yielded a CC50 at 5 days in data set [1] of more than 10 mM.

`C=COC(=O)OCCOCCOC(=O)OC=C` [DEGDVC, diethylene glycol bis(vinyl carbonate)]: the CC50 at 5 days in data set [1] is more than 10 mM.

On to `C=COP(=O)(OCC)OCC` [DEVP, diethyl vinyl phosphate], for which the CC50 in data set [1] (setting [4]) is more than 10 mM.

In data set [1], `C=COC(=O)CCCCCCCCC` [DVE, decanoic acid vinyl ester] returned a CC50 at 5 days of more than 10 mM. Also, the Cmax1/2 in data set [3] (setting [5]) was more than 1000 µM.

`C=COP(=O)(OC=C)OCC` [DVEP, divinyl ethyl phosphate] yielded a CC50 in data set [1] (setting [4]) of more than 10 mM.

For the molecule `C=COC(=O)NCCOP(=O)(OCC)OCCNC(=O)OC=C` [EBVCAEP, ethyl bis[2-(vinyloxycarbonylamino)ethyl]phosphate], the CC50 in data set [1] (setting [4]) is more than 10 mM.

`C=COC(=O)OCCOC(=O)OC=C` [EGDVC, ethylene glycol bis(vinyl carbonate)]: the CC50 at 5 days in data set [1] was more than 10 mM.

On to `C=COC(=O)OCC` [EVC, ethylvinyl carbonate], for which, in data set [1], the CC50 at 5 days is more than 10 mM.

In data set [1], `C=COC(=O)OCC(COC(=O)OC=C)OC(=O)OC=C` [GTVC, glycerine tris(vinyl carbonate)] displayed a CC50 at 5 days of more than 10 mM.

`C=CC(=O)OCCCCCCOC(=O)C=C` [HDDA, 1,6-hexanediol diacrylate, reference compound] showed a CC50 in data set [1] (setting [4]) of less than 0.01 mM. For the same molecule, the Cmax1/2 in data set [3] (setting [5]) came out at 20 µM.

The molecule `C=COC(=O)OCCCCCCOC(=O)OC=C` [HDDVC, 1,6-hexanediol bis(vinyl carbonate)] gave a CC50 at 5 days in data set [1] of more than 10 mM.

Take `C=COC(=O)CCCCC` [HVE, hexanoic acid vinyl ester]: the CC50 at 5 days in data set [1] is more than 10 mM. Further, in data set [3] (setting [5]), the Cmax1/2 is more than 1000 µM.

`C=COC(=O)NCCCOCCOCCCNC(=O)OC=C` [JAVM, 3,3′-ethylenedioxy bis(propylamine)divinyl carbamate] displayed a CC50 in data set [1] (setting [4]) of more than 10 mM.

For the molecule `C=COC(=O)CCCCCCC(=O)OC=C` [KVE, octanedioic acid divinyl ester], the CC50 at 5 days in data set [1] is more than 10 mM. The molecule further gave a Cmax1/2 in data set [3] (setting [5]) of more than 1000 µM.

With `C=COC(=O)ON(C)C(=O)OC=C` [MHADVC, N,O-Bis(vinyloxycarbonyl)-N-methyl hydroxylamine], the CC50 in data set [1] (setting [4]) is more than 10 mM.

The molecule `C=COC(=O)NOC` [MVCA, N-methoxy vinyl carbamate] registered a CC50 in data set [1] (setting [4]) of more than 10 mM.

As for `C=COC(=O)N(C)CCN(C)C(=O)OC=C` [N,N′-dimethyl ethylenediamine bis(vinyl carbamate)], in data set [1] (setting [4]), the CC50 is more than 10 mM.

`C=COC(=O)[C@H](Cc1ccccc1)NC(C)=O` [PAVE, N-acetyl phenylalanine vinyl ester] gave a CC50 at 5 days in data set [1] of more than 10 mM. In data set [3] (setting [5]), the Cmax1/2 is more than 1000 µM.

In data set [1], `C=COC(=O)CCCCCCCCC(=O)OC=C` [SEVE, sebacic acid divinyl ester] had a CC50 at 5 days of more than 10 mM. Also, the Cmax1/2 in data set [3] (setting [5]) was more than 1000 µM.

`C=COC(=O)N(C)CC(=O)OC` [SMEVCA, sarcosine methyl ester vinyl carbamate]: the CC50 in data set [1] (setting [4]) is more than 10 mM.

In data set [1], `C=COC(=O)CC(C)C(C)C(CC(=O)OC=C)C(C)CC(=O)OC=C` (centres unmarked) [TFVE, trimeric fatty acid trivinyl ester] came in with a CC50 at 5 days of more than 10 mM.

In turn, `C=CC(=O)OCC(CC)(COC(=O)C=C)COC(=O)C=C` [TTA, trimethylolpropane triacrylate, reference compound] had a CC50 in data set [1] (setting [4]) of less than 0.01 mM. In data set [3] (human, 24 h), the Cmax1/2 was determined as 10 µM.

In the case of `C=COC(=O)COCCOCCOCC(=O)OC=C` [TUVE, ω,ω′-3,6,9-trioxaundecanedioic acid divinyl ester], the CC50 at 5 days in data set [1] was more than 10 mM.

`C=COP(=O)(OC=C)OC=C` [TVP, trivinyl phosphate]: the CC50 in data set [1] (setting [4]) is more than 10 mM.

Consider “diethylene glycol bis[O—(O′- vinylmaleinoy1)-polylactate] [DVMPL]”, for which the Cmax1/2 in data set [3] (setting [5]) was more than 1000 µM.

Turning to “ethoxylated (20) TTA, MG 1200 [ETA, reference compound]”, the CC50 in data set [2] was found to be 0.07 mM. For the same molecule, in data set [3] (human), the Cmax1/2 was found to be 100 µM.

Regarding “hydrated ricinus oil tris(vinyl carbonate) [HRiTVC]”, the CC50 in data set [2] is more than 10 mM.

“polyethylene glycol diacrylate, MG 800 [PEG-DA, reference compound]” returned a CC50 in data set [2] of 0.11 mM. In data set [3] (human), this molecule came in with a Cmax1/2 of 500 µM.

Consider “polyethylene glycol(400) bis(vinyl carbonate) [PEGDVC]”, for which the CC50 in data set [2] is more than 10 mM.
